Experimental data reported in ChEMBL document CHEMBL5727938, “HIV protease inhibitors” (2020).
pEC50: −log10 of the molar value.

Experiment: MT-4 HIV High Resolution Antiviral Assay: Assay protocol is identical to that described for the MT-4 antiviral assay with the following changes: Each drug is run in 2 series of quadruplicates with different starting concentrations for each series and 19 1.5 fold dilutions performed across the plate. […] Data is analyzed and Hill coefficients determined in Graph Pad Prism (San Diego, Calif.).

Question: With CC(C)(C)C[C@]1(c2ccc(-c3cnn(C(F)F)c3)cc2)NC(=N)N([C@H](COC(=O)NC2(C(F)(F)F)CC2)c2ccc(Cl)c(-n3ncnc3C(F)F)c2)C1=O as the compound, how does the pEC50 read?
Answer: Its pEC50 is 7.55.

Question: With CC(C)(C)C[C@]1(c2ccc(-c3cnn(C4CC4)n3)cc2)NC(=N)N([C@H](COC(=O)NC2(C(F)(F)F)CC2)c2ccc(Cl)c(-c3ncnn3C(F)F)c2)C1=O as the compound, how does the pEC50 read?
Answer: Its pEC50 is 7.78.

Question: With CC(C)(C)C[C@]1(c2ccc(-c3cnn(C(F)F)c3)cc2)NC(=N)N([C@H](COC(=O)NC2(C(F)(F)F)CC2)c2ccc(-n3ncnc3C(F)F)cc2)C1=O as the compound, how does the pEC50 read?
Answer: Its pEC50 is 6.87.

Question: With CC(C)(C)C[C@H]1C(=O)N([C@H](COC(=O)NC2(C(F)(F)F)CC2)c2ccc(F)c(-c3ncnn3C(F)F)c2)C(=N)N1c1ccc(-c2cnn(C(F)F)c2)cc1 as the compound, how does the pEC50 read?
Answer: Its pEC50 is 7.55.

Question: With CC(C)(C)C[C@]1(c2ccc(-c3ncccn3)cc2)NC(=N)N([C@H](COC(=O)NC2(C(F)(F)F)CC2)c2ccc(Cl)c(C3=NC=NC3C(F)F)c2)C1=O (stereo partly drawn) as the compound, how does the pEC50 read?
Answer: The pEC50 was 8.17.

Question: With CC(C)(C)C[C@H]1C(=O)N([C@H](COC(=O)NC(C)(C)C(F)F)c2ccc(Cl)c(-c3ncnn3C(F)F)c2)C(=N)N1c1ccc(-c2ncccn2)cc1 as the compound, how does the pEC50 read?
Answer: Its pEC50 is 7.92.

Question: With CC(C)(C)C[C@]1(c2ccc(-c3ccn(C4CC4)n3)cc2)NC(=N)C([C@H](COC(=O)NC2(C(F)(F)F)CC2)c2ccc(Cl)c(-n3ncnc3C(F)F)c2)C1=O (stereo partly drawn) as the compound, how does the pEC50 read?
Answer: The pEC50 was 7.94.

Question: With CC(C)(C)C[C@]1(c2ccc(-c3ccn(C4CC4)n3)cc2F)NC(=N)C([C@H](COC(=O)NC2(C(F)(F)F)CC2)c2ccc(Cl)c(-n3ncnc3C(F)F)c2)C1=O (stereo partly drawn) as the compound, how does the pEC50 read?
Answer: Its pEC50 is 7.73.

Question: With CC(C)(C)C[C@]1(c2ccc(-c3cnccn3)cc2)NC(=N)C([C@H](COC(=O)NC2(C(F)(F)F)CC2)c2ccc(Cl)c(-c3ncn[nH]3)c2)C1=O (stereo partly drawn) as the compound, how does the pEC50 read?
Answer: The pEC50 was 7.09.

Question: With CC(C)(C)C[C@]1(c2ccc(-c3nncn3C(F)F)cc2F)NC(=N)N([C@H](COC(=O)C2(C(F)(F)F)CC2)c2ccc(Cl)c(-n3ncnc3C(F)F)c2)C1=O as the compound, how does the pEC50 read?
Answer: The pEC50 was 7.12.

Question: With CC(C)(F)C[C@H]1C(=O)N([C@H](COC(=O)NC(C)(C)C(F)F)c2ccc(Cl)c(-c3ncnn3C(F)F)c2)C(=N)N1c1ccc(Br)cc1 as the compound, how does the pEC50 read?
Answer: Its pEC50 is 6.62.

Question: With CC(C)(C)C[C@]1(c2ccc(-c3cnn(C(F)F)c3)c(F)c2F)NC(=N)N([C@H](COC(=O)NC2(C)CC2)c2ccc(Cl)c(-n3cncn3)c2)C1=O as the compound, how does the pEC50 read?
Answer: Its pEC50 is 8.06.

Question: With CC(C)(C)C[C@]1(c2ccc(-c3cnn(C4CC4)n3)c(F)c2)NC(=N)N([C@H](COC(=O)NC2(C(F)(F)F)CC2)c2ccc(Cl)c(-c3ncnn3C(F)F)c2)C1=O as the compound, how does the pEC50 read?
Answer: The pEC50 was 8.10.
